Measured values published in publication PMC11322497 (Frontiers in Pharmacology, 2024).

Tested on: high fat diet (HFD) rabbit model of metabolic-associated steatohepatitis (MASH)
Experiment: HFD rabbit study, prolonged 4-week treatment (weeks 9–12): clinical and biochemical data
Assay type: in vivo, New Zealand White rabbits
Conditions: HFD rabbits, mean±SD, n=7
Description: After 1 week (W) of RD, the animals (n = 44) were randomly assigned to the following groups (Table 1B): • Control rabbits continued to receive a RD for 12 weeks and were treated with vehicle for 5 days a week (days 1–5, p.o.) during the last 4 weeks before culling (RD + 4W Veh group); • Rabbits received a HFD for 8 weeks and were culled (HFD 8W group); • Rabbits received a HFD for 12 weeks and were treated with vehicle for 5 days a week (days 1–5, p.o.) during the last 4 weeks before culling (HFD+4W Veh group); • Rabbits received a HFD for 12 weeks and were treated with GB1211 (0.3 mg/kg) for 5 days a week (days 1–5, p.o.) during the last 4 weeks before culling (HFD + 4W 0.3 mg group); • Rabbits received a HFD for 12 weeks and were treated with GB1211 (1.0 mg/kg) for 5 days a week (days 1–5, p.o.) during the last 4 weeks before culling (HFD + 4W 1.0 mg group); • Rabbits received a HFD for 12 weeks and were treated with GB1211 (5.0 mg/kg) for 5 days a week (days 1–5, p.o.) during the last 4 weeks before culling (HFD + 4W 5.0 mg group).
The oral glucose tolerance test (OGTT) was performed in accordance with the published method ([Filippi et al., 2009]). Briefly, after an overnight fast, a 50% glucose solution was orally administered to the animals at a dose of 1.5 g/kg. Blood samples were collected before and 15, 30, and 120 min after glucose loading. The incremental area under the curve (iAUC) was calculated by using GraphPad Prism (GraphPad Software, San Diego, CA). Blood samples for analyses were obtained from the marginal ear vein at week 8 or 12, in all groups. All blood samples were collected in standard conditions, before 10 a.m. after an overnight fasting. The blood was immediately centrifuged at 2,000 g for 20 min at 4°C and collected plasma/serum stored at −80°C until assayed. Plasma glucose, total cholesterol, triglycerides, transaminases (AST and ALT), and gamma-glutamyl transferase levels were measured using an automated system (Cobas 8000, Roche Diagnostics International AG, Rotkreuz, Switzerland). Serum alkaline phosphatase, albumin and total bilirubin levels were measured at IDEXX Laboratories (Kornwestheim, Germany), using an automated system (AU480, Beckman-Coulter, Brea, CA) with kinetic and photometric colour tests as per the following methods: alkaline phosphatase - alkaline buffer solution [2-amino-2-methylpropanol (AMP) in conjunction with p-nitrophenyl phosphate (pNPP)], according to the recommendation of the International Federation for Clinical Chemistry; albumin - the reaction of bromocresol green with albumin produces a colour complex, the absorption of which is measured dichromatically ([Doumas et al., 1971]); total bilirubin - a stabilized diazonium salt, 3,5-dichlorophenyldiazonium tetrafluoroborate (DPD), reacts with bilirubin to formazobilirubin, which absorbs at 570 nm ([Tolman and Rej, 1999]).
Mean arterial blood pressure (MAP) was measured by using a polyethylene catheter inserted into a femoral artery at week 8 or 12, after ketamine (10 mg/kg i.v.) and sodium thiopental (50 mg/kg i.v.) sedation.

Molecule `OC[C@H]1O[C@H](Sc2cncc(Br)c2)[C@H](O)[C@@H](n2cc(-c3cc(F)c(F)c(F)c3)nn2)[C@H]1O` [selvigaltin] has an ALP (0.3 mg/kg p.o. 5 days/week) of 69.43 ± 38.22 U/L, an ALT (0.3 mg/kg p.o. 5 days/week) of 45.71 ± 22.51 U/L and an AST (0.3 mg/kg p.o. 5 days/week) of 74.29 ± 51.50 U/L. For the same molecule, the Albumin (0.3 mg/kg p.o. 5 days/week) was 38.29 ± 4.42 g/L, the Bilirubin (0.3 mg/kg p.o. 5 days/week) was 17.91 ± 13.00 µM and the Glycaemia (0.3 mg/kg p.o. 5 days/week) was 1.21 ± 0.15 gr/L. For the same molecule, the “Liver Weight” value (0.3 mg/kg p.o. 5 days/week) was 3.56 ± 0.28 % of BW, the MAP (0.3 mg/kg p.o. 5 days/week) was 144.91 ± 16.18 mmHg and the “OGTT (iAUC)” value (0.3 mg/kg p.o. 5 days/week) was 165.51 ± 20.71. The “Plasma Cholesterol” value (0.3 mg/kg p.o. 5 days/week) was 2,277.43 ± 1,078.47 mg/dL, the “Plasma Triglycerides” value (0.3 mg/kg p.o. 5 days/week) was 374.00 ± 619.70 mg/dL and the “Tissue Triglycerides” value (0.3 mg/kg p.o. 5 days/week) was 14.76 ± 2.26 nmol/mg Liver. The “VAT Weight” value (0.3 mg/kg p.o. 5 days/week) was 0.67 ± 0.21 % of BW, the γGT (0.3 mg/kg p.o. 5 days/week) was 30.08 ± 22.90 U/L and the ALP (1.0 mg/kg p.o. 5 days/week) was 72.86 ± 65.69 U/L. It also gave an ALT (1.0 mg/kg p.o. 5 days/week) of 58.14 ± 27.72 U/L, an AST (1.0 mg/kg p.o. 5 days/week) of 59.00 ± 37.48 U/L and an Albumin (1.0 mg/kg p.o. 5 days/week) of 38.71 ± 2.63 g/L. The Bilirubin (1.0 mg/kg p.o. 5 days/week) was 9.53 ± 3.73 µM, the Glycaemia (1.0 mg/kg p.o. 5 days/week) was 1.90 ± 0.87 gr/L and the “Liver Weight” value (1.0 mg/kg p.o. 5 days/week) was 3.73 ± 0.32 % of BW. For the same molecule, the MAP (1.0 mg/kg p.o. 5 days/week) was 151.23 ± 26.21 mmHg, the “OGTT (iAUC)” value (1.0 mg/kg p.o. 5 days/week) was 189.37 ± 22.39 and the “Plasma Cholesterol” value (1.0 mg/kg p.o. 5 days/week) was 2,182.86 ± 776.09 mg/dL. The “Plasma Triglycerides” value (1.0 mg/kg p.o. 5 days/week) was 157.29 ± 68.66 mg/dL, the “Tissue Triglycerides” value (1.0 mg/kg p.o. 5 days/week) was 14.34 ± 1.35 nmol/mg Liver and the “VAT Weight” value (1.0 mg/kg p.o. 5 days/week) was 0.68 ± 0.24 % of BW. The γGT (1.0 mg/kg p.o. 5 days/week) was 27.71 ± 14.16 U/L, the ALP (5.0 mg/kg p.o. 5 days/week) was 49.57 ± 30.84 U/L and the ALT (5.0 mg/kg p.o. 5 days/week) was 56.43 ± 20.02 U/L. It also gave an AST (5.0 mg/kg p.o. 5 days/week) of 62.43 ± 15.80 U/L, an Albumin (5.0 mg/kg p.o. 5 days/week) of 39.29 ± 5.94 g/L and a Bilirubin (5.0 mg/kg p.o. 5 days/week) of 15.45 ± 9.05 µM. The Glycaemia (5.0 mg/kg p.o. 5 days/week) was 1.43 ± 0.35 gr/L, the “Liver Weight” value (5.0 mg/kg p.o. 5 days/week) was 3.56 ± 0.16 % of BW and the MAP (5.0 mg/kg p.o. 5 days/week) was 141.04 ± 30.52 mmHg. The “OGTT (iAUC)” value (5.0 mg/kg p.o. 5 days/week) was 165.00 ± 2.65, the “Plasma Cholesterol” value (5.0 mg/kg p.o. 5 days/week) was 1,546.43 ± 350.47 mg/dL and the “Plasma Triglycerides” value (5.0 mg/kg p.o. 5 days/week) was 191.43 ± 234.40 mg/dL. For the same molecule, the “Tissue Triglycerides” value (5.0 mg/kg p.o. 5 days/week) was 14.51 ± 1.49 nmol/mg Liver, the “VAT Weight” value (5.0 mg/kg p.o. 5 days/week) was 0.87 ± 0.32 % of BW and the γGT (5.0 mg/kg p.o. 5 days/week) was 21.29 ± 13.11 U/L.
